According to ChEMBL document CHEMBL1121411, “Convenient synthesis of 10-deazaaminopterin via a pteridine ylide” (J Med Chem, 1980):

System: HEp-2
Experiment: Tested for cloning suppression test against H.Ep.-2 cells
Type: functional
Settings: Homo sapiens, read-out: ED50 (the source's name)

SMILES | EC50 [nM]
Nc1cc(N)c2cc(CCc3ccc(C(=O)NC(CCC(=O)O)C(=O)O)cc3)ccc2c1 (configuration not stated) | 0.9
CN(Cc1cnc2nc(N)nc(N)c2n1)c1ccc(C(=O)N[C@@H](CCC(=O)O)C(=O)O)cc1 [METHOTREXATE] | 2.4
